Source: US20250177477A1, “CYCLOSPORIN ANALOGUES AND USES THEREOF” (DYNEQ MEDICAL LIMITED, priority 2017, published 2025)

Legend:
[1] = target: cyclophilin B (Homo sapiens, UniProt P23284); assay: Cyclophilin inhibition binding, competitive ELISA (Cyclophilin B); conditions: human recombinant cyclophilin, read-out: EC50 against cyclophilin B
Experimental: The cyclophilin inhibition binding of compounds disclosed herein was determined using a competitive ELISA adapted from the methods described by Quesniaux et al. (Eur. J Immunol., 1987, 17:1359-1365). Activated ester of succinyl spacers bound to D-Lys^8-cylosporine A (D-Lys^8-Cs) are coupled to bovine serum albumin (BSA) through D-lysyl residue in position 8. BSA is dissolved in 0.1 M borate buffer, pH 9.0 (4 mg in 1.4 ml). A hundredfold molar excess of D-Lys^8-Cs dissolved in dimethyl formamide (0.6 ml) is added drop wise to the BSA under vigorous stirring. […] After acetone precipitation of an aliquot of the conjugated protein, no covalently bound D-Lys^8-Cs remains in the acetone solution and the extent of cyclosporine covalent binding is calculated.
Microtiter Plates are coated with D-Lys^8-Cs-BSA conjugate (2 μg/ml in PBS for 24 hours at 4° C.). […] Cyclophilin is detected with anti-cyclophilin rabbit antiserum diluted in 1% BSA containing PBS and incubates overnight at 4° C. […] Bound rabbit antibodies are then detected by goat anti-rabbit IgG conjugated to alkaline phosphatase diluted in 1% BSA-PBS and allowed to incubate for 2 hours at 37° C. […] After incubation with 4-nitrophenyl phosphate (1 g/l in diethanolamine buffer, pH 9.8) for 1 to 2 hours at 37° C., the enzymatic reaction is measured spectrophotometrically at 405 nm using a spectrophotometer. […]

[2] = system: Sprague-Dawley rats with induced Acute Kidney Injury; assay: Renal Ischemia-Reperfusion Induced Acute Kidney Injury in rats; assay type: in vivo, rat; conditions: for Creatinine: serum 24 hours after ligation/release
Experimental: With the exception of Group (i), i.e. the ‘sham group’, renal Ischemia-Reperfusion Induced Acute Kidney Injury (AKI) was induced in the rats by ligation of bilateral renal arteries for 30 min and then ligation was released. Animals in the control and treatment groups were administered intraperitoneal injections three times (1 h before ligation, 4 h and 8 h after ligation). Blood was taken from the animals 24 hours after the ligation/release procedure and analyzed for serum Creatinine and Blood Urea Nitrogen (BUN) concentrations, as a measure of kidney injury.

[3] = target: Cyclophilin D (Homo sapiens, UniProt P30405); assay: Cyclophilin inhibition binding, competitive ELISA (Cyclophilin D); conditions: human recombinant cyclophilin, read-out: CypD EC50
Cyclophilin D, sequence (P30405 30-207): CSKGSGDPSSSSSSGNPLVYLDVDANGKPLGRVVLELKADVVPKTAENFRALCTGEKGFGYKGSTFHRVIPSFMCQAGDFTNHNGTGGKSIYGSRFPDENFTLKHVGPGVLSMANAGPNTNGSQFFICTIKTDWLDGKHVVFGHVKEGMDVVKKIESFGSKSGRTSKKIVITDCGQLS
Experimental: (§1) The cyclophilin inhibition binding of compounds disclosed herein was determined using a competitive ELISA adapted from the methods described by Quesniaux et al. (Eur. J Immunol., 1987, 17:1359-1365). Activated ester of succinyl spacers bound to D-Lys^8-cylosporine A (D-Lys^8-Cs) are coupled to bovine serum albumin (BSA) through D-lysyl residue in position 8. BSA is dissolved in 0.1 M borate buffer, pH 9.0 (4 mg in 1.4 ml). A hundredfold molar excess of D-Lys^8-Cs dissolved in dimethyl formamide (0.6 ml) is added drop wise to the BSA under vigorous stirring. The coupling reaction is performed for 2 to 3 hours at room temperature under mild stirring and the conjugate is extensively dialyzed against phosphate-buffered saline (PBS, pH 7.4).
(§2) Microtiter Plates are coated with D-Lys^8-Cs-BSA conjugate (2 μg/ml in PBS for 24 hours at 4° C.). Plates are washed with Tween®/PBS and with PBS alone. To block nonspecific binding, 2% BSA/PBS (pH 7.4) is added to the wells and allowed to incubate for 2 hours at 37° C. […] Cyclophilin is detected with anti-cyclophilin rabbit antiserum diluted in 1% BSA containing PBS and incubates overnight at 4° C. […] Bound rabbit antibodies are then detected by goat anti-rabbit IgG conjugated to alkaline phosphatase diluted in 1% BSA-PBS and allowed to incubate for 2 hours at 37° C. […]

[4] = target: Cyclophilin A (Homo sapiens, UniProt P62937); assay: Cyclophilin inhibition binding, competitive ELISA (Cyclophilin A); conditions: human recombinant cyclophilin, read-out: CypA EC50
Cyclophilin A, sequence (P62937 whole entry): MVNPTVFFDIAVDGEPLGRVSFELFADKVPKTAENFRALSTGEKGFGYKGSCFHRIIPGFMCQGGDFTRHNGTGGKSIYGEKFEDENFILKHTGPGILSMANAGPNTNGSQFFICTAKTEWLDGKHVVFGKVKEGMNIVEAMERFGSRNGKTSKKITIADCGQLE
Experimental: as §1, §2

cyclophilin B, sequence (P23284 34-216): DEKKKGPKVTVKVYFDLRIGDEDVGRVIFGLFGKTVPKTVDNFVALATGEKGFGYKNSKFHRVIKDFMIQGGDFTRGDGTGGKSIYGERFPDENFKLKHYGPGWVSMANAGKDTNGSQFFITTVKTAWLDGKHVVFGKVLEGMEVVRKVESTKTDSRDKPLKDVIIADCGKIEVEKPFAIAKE

`C/C=C/C[C@@H](C)[C@@H](O)[C@H]1C(=O)N[C@@H](CC)C(=O)N(C)[C@H](OCCN(C)C)C(=O)N(C)[C@@H](CC(C)C)C(=O)N[C@@H](C(C)C)C(=O)N(C)[C@@H](CC(C)C)C(=O)N[C@@H](C)C(=O)N[C@H](C)C(=O)N(C)[C@@H](CC(C)C)C(=O)N(C)[C@@H](CC(C)C)C(=O)N(C)[C@@H](C(C)C)C(=O)N1C` [Compound 1] showed an EC50 [1] of less than 0.1 µM.

`C/C=C/C[C@@H](C)[C@@H](O)[C@H]1C(=O)N[C@@H](CC)C(=O)N(C)CC(=O)N(C)[C@@H](CC(C)C)C(=O)N[C@@H](C(C)C)C(=O)N(C)[C@@H](CC(C)C)C(=O)N[C@@H](C)C(=O)N[C@H](C)C(=O)N(C)[C@@H](CC(C)C)C(=O)N(C)[C@@H](CC(C)C)C(=O)N(C)[C@@H](C(C)C)C(=O)N1C` [CsA, Cyclosporin A] was tested, and the Creatinine ([2]; 3 mg/kg i.p. three times) was 115 µmol/L, the “Blood Urea Nitrogen” value ([2]; 10 mg/kg i.p. three times, 24 hours after ligation/release) was 42 mmol/L and the Creatinine ([2]; 10 mg/kg i.p. three times) was 290 µmol/L.

In the case of `C/C=C/C[C@@H](C)[C@@H](O)[C@H]1C(=O)N[C@@H](CC)C(=O)N(C)[C@H](OCCNC)C(=O)N(C)[C@@H](CC(C)C)C(=O)N[C@@H](C(C)C)C(=O)N(C)[C@@H](CC(C)C)C(=O)N[C@@H](C)C(=O)N[C@H](C)C(=O)N(C)[C@@H](CC(C)C)C(=O)N(C)[C@@H](CC(C)C)C(=O)N(C)[C@@H](C(C)C)C(=O)N1C` [Entry 1], the EC50 [3] is reported as 2.17 µM and the EC50 [4] is reported as 0.061 µM.
